Laboratory results from US5234947A, “Potassium channel activating compounds and methods of use thereof” (New York University, priority 1991, dated 1993).
“Also recorded” adds a separate entry of the source.

What was measured:
[1] = target: T1, large 200-220 pS channel (large Ca++-dependent K+ channel) (Rattus norvegicus, UniProt Q62976); experiment: lipid bilayer technique, rat brain membranes fused with a bilayer on a patch-clamp pipette; format: biochemical
T1 construct: single-channel recording
T1 sequence (Q62976 whole entry, the tested form may be a part): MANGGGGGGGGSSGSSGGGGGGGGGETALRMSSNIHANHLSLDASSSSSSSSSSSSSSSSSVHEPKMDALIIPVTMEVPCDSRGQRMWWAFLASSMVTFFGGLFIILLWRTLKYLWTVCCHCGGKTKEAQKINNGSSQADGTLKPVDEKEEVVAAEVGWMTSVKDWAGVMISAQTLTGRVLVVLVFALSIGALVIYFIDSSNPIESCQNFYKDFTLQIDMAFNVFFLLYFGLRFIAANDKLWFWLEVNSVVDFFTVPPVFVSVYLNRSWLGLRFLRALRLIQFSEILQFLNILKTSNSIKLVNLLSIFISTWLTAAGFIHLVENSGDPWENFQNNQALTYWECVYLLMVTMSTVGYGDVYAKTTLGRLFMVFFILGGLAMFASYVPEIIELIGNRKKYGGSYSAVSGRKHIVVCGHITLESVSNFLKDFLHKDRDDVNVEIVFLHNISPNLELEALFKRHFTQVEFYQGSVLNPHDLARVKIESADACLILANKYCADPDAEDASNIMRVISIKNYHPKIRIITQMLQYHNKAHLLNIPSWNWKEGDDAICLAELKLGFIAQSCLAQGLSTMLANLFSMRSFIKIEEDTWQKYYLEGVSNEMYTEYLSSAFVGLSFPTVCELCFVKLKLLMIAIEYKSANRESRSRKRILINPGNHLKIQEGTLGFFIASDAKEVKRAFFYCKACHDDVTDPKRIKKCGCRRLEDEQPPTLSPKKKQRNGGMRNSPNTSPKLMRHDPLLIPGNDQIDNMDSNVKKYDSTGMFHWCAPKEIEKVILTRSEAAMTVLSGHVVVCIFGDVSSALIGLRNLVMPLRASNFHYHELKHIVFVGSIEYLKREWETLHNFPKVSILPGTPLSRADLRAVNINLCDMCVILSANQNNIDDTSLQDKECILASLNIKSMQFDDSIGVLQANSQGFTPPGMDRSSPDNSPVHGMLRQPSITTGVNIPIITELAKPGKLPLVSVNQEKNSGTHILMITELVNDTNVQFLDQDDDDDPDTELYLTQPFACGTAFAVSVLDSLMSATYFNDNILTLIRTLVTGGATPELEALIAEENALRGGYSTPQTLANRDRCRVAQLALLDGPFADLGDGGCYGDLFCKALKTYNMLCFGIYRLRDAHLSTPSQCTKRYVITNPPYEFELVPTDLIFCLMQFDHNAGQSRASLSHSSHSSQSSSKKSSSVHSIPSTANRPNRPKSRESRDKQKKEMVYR
Experimental: Isolated avena pyrone was studied for its action against ionic channels in cell membranes using the lipid bilayer technique. Membranes from rat brain were fused with a lipid bilayer formed across the opening of a patch-clamp pipette. Electrical activity was monitored using an Axon Instruments Axopatch amplifier using 100 mM symmetrical KCl solutions. In the presence of elevated levels of calcium, at least three types of potassium channel can be determined: a small 25-50 pS channel, a 90-120 pS channel, and a large 200-220 pS channel. In the absence of calcium in the bathing solutions, openings of the large 200 pS channel are rarely seen.
FIGS. 1 and 2 show the exposure of the channels to potassium in the presence of avena pyrone. In the two tracings in FIG. 1, the membrane potential was held at -25 mV. Under these conditions, the mid-sized K^+ channel is very active but the large channel is rarely open during the approximately 1.5 seconds shown. […] The effect is most pronounced under low calcium conditions.

craving for a cigarette = format: in vivo; conditions: cigarette smoking
Excerpt: The interference with the effects of withdrawal symptoms from addictive substances of the subject compounds is also consistent with potassium channel activation. […] As one gets a craving for a cigarette, there is a perception of muscular tension. The effects of potassium channel activators are to lower the blood pressure, relax the muscles and make breathing easier, all of which counteracts the feeling of craving one experiences upon withdrawal from an addictive substance.

potassium channel = potassium channel activation (method not described); format: biochemical

Row | SMILES | activation of the large K+ channel ([1]; absence of calcium / low calcium, 100 mM symmetrical KCl, membrane potential -25 mV) | open times of the large channel ([1]; avena pyrone added to the bath, -25 mV) | open probability of the large channel ([1]; avena pyrone added to the bathing solution) | activation of the large channel ([1]; conditions of greater calcium concentration) | craving for a cigarette (craving for a cigarette) | potassium channel activation (potassium channel)
1 | CC1CCCC(=O)O1 (stereo not drawn) [avena pyrone, 2H-6-methyltetrahydropyran-2-one] | activation of the large K^+ channel is seen; also recorded: the large channel was activated | very long open times; also recorded: increased from a few milliseconds to times approaching seconds | increased open probability; also recorded: substantially increasing the open probability | still capable of activation of the channel but to a lesser degree | reduce the craving for a cigarette | 
2 | COC1=CC(=O)O[C@@H](/C=C/c2ccccc2)C1 [kawain] |  |  |  |  |  | potassium channel activating substance
